Experimental data: ChEMBL document CHEMBL5678818, “Discovery of potent SOS1 inhibitors that block RAS activation via disruption of the RAS-SOS1 interaction” (Proc Natl Acad Sci U S A, 2019)

Tests used:
[1] = biological target: T1, Cyclin-dependent kinase 11A (Homo sapiens) (UniProt Q9UQ88); assay: Inhibition of CDC2L2 (unknown origin) assessed as residual activity at 1000 nM by KINOMEscan analysis relative to control
T1 sequence (whole entry): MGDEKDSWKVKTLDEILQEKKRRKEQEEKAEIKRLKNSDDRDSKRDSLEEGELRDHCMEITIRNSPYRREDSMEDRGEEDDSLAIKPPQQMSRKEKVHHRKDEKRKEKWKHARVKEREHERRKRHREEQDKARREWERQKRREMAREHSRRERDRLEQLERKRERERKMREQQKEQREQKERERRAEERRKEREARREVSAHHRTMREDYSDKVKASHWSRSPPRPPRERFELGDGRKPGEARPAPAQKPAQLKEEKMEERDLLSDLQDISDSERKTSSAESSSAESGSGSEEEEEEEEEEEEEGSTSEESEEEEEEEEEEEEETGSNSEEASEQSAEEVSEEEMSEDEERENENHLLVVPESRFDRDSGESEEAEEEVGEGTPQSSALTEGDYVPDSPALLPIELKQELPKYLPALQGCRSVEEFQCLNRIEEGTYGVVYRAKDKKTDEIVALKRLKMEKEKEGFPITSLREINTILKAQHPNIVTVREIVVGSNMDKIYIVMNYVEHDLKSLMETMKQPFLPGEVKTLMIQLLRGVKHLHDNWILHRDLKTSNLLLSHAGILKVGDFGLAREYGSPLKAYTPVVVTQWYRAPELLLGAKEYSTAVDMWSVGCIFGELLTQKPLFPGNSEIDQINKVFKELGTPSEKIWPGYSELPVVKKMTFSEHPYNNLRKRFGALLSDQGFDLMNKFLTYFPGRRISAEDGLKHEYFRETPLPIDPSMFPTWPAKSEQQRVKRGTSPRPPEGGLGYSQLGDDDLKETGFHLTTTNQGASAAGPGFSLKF

[2] = system: Epidermal growth factor receptor (Homo sapiens), P00533 [L858R,T790M]; assay: Inhibition of EGFR L858R/T790M mutant (unknown origin) assessed as residual activity at 1000 nM by KINOMEscan analysis relative to control
[3] = biological target: T2, Mitogen-activated protein kinase kinase kinase kinase 2 (Homo sapiens) (UniProt Q12851); assay: Inhibition of MAP4K2 (unknown origin) assessed as residual activity at 1000 nM by KINOMEscan analysis relative to control
T2 sequence (whole entry): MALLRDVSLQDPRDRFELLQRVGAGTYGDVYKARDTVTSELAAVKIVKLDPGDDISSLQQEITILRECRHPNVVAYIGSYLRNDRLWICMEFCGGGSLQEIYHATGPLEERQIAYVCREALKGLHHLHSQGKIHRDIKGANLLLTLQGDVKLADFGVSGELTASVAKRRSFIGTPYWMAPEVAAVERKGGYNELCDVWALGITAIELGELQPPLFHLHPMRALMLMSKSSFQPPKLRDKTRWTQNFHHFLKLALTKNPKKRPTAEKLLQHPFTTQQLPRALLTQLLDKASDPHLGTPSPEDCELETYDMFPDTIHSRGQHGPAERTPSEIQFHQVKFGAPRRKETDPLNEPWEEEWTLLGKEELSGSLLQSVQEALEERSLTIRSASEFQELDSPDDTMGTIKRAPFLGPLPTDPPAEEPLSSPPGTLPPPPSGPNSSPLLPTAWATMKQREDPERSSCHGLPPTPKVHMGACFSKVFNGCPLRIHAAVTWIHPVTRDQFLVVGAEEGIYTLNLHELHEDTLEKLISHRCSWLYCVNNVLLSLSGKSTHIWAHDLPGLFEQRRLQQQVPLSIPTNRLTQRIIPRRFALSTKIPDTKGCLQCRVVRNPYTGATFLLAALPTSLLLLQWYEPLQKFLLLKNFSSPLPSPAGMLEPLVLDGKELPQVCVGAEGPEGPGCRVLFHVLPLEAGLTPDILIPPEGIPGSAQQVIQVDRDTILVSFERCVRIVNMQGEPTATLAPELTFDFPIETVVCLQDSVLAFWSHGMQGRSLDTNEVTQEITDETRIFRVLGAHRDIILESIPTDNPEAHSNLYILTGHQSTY

[4] = biological target: T3, MAP kinase-activated protein kinase 5 (Homo sapiens) (UniProt Q8IW41); assay: Inhibition of MAPKAPK5 (unknown origin) assessed as residual activity at 1000 nM by KINOMEscan analysis relative to control
T3 sequence (whole entry): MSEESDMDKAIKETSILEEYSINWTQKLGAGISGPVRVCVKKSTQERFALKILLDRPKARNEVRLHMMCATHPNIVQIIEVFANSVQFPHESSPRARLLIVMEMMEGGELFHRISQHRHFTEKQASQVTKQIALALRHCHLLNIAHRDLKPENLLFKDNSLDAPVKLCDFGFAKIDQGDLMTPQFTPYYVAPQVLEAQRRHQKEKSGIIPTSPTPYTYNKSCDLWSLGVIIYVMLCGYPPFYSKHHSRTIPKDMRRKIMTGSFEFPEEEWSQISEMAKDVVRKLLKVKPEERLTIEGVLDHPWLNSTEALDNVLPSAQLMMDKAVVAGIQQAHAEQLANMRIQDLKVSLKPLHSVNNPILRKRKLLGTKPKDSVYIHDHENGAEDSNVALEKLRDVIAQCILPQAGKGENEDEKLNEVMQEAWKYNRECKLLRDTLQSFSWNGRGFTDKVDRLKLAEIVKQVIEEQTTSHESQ

[5] = biological target: T4, Serine/threonine-protein kinase RIO3 (Homo sapiens) (UniProt O14730); assay: Inhibition of RIOK3 (unknown origin) assessed as residual activity at 1000 nM by KINOMEscan analysis relative to control
T4 sequence (whole entry): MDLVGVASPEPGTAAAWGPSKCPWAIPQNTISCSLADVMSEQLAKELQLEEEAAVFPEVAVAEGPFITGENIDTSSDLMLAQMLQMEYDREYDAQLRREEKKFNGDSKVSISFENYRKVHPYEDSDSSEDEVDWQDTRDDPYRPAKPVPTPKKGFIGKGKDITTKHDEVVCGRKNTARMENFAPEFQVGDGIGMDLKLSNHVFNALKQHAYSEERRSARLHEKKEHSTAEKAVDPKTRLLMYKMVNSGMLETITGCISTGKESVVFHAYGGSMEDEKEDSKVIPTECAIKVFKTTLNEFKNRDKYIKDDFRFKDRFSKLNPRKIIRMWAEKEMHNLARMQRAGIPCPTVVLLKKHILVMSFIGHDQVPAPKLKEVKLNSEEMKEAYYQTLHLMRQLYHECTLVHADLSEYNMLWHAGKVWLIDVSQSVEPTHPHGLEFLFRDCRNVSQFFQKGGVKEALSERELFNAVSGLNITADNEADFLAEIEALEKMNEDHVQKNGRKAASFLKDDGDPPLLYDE

[6] = biological target: STE20/SPS1-related proline-alanine-rich protein kinase (Homo sapiens) (UniProt Q9UEW8); assay: Inhibition of STK39 (unknown origin) assessed as residual activity at 1000 nM by KINOMEscan analysis relative to control

COc1cc2nc(C)nc(N[C@H](C)c3cccc(-c4cn[nH]c4)c3)c2cc1OC
Activity [1]: 100% | Activity [2]: 92% | Activity [3]: 100% | Activity [4]: 85% | Activity [5]: 88% | Activity [6]: 76%

COc1cc2ncnc(N[C@H](C)c3cccc4ccccc34)c2cc1OC
Activity [1]: 99% | Activity [2]: 74% | Activity [3]: 78% | Activity [4]: 87% | Activity [5]: 83% | Activity [6]: 100%
